Animals died, LD50 and ED50 data for five compounds are collected here from patent US4179508A, “Sulfur-containing derivatives of 4,4-dimethyl-2H,4H-isoquinoline-1,3-dione, and anticonvulsant and antihyperlipidemic compositions thereof” (Boehringer Ingelheim GmbH, priority 1977, dated 1979).

Format in all cases: in vivo
Data set [1] relates to mice. As to the kind of experiment: Acute toxicity. As to conditions: 500 mgm/kg p.o., observation time 4 days. The protocol: (§1) The anticonvulsive activity and toxicity of the compounds of this invention were ascertained by the methods described below, and tables I and II show the results of these tests for a few representative species of the genus, where
(§2) The acute toxicity of the compounds was determined after administration of various dosages to groups of 10 mice with body weights of between 20 and 26 gm (observation time: 4 days).

The nature of data set [2]: Acute toxicity. As to conditions: mouse, in vivo, po; mice, p.o., groups of 10, observation time 4 days. As for the experimental part: as §1, §2
Data set [3] concerns hind limb tonic extensor component of the maximal seizure pattern. In words: Anticonvulsive activity in mice, maximal electroshock seizure pattern method. Conditions: Mus musculus, male mice, oral, maximal electroshock 50 mA, 0.2 sec. The protocol: as §1
Male mice with body weights of between 20 and 26 gm were used as the test animals. They were allowed free access to food and water up to one hour before administration of the test compound. The tests were carried out by using the maximal electroshock seizure pattern method [SWINYARD et, J. Pharmacol. exp. Ther. 106, 319 (1952)].
The electroshock apparatus was constructed according to WOODBURY and DAVENPORT [Arch. int. Pharmacodyn. 99, 97 (1952)]. The electric impulses (50 Hz A.C., 50 mA, 0.2 sec.) were delivered via steel ball electrodes covered with buckskin and moistened with an aqueous 0.9% sodium chloride solution to the heads by way of the eyes of the mice. The test is a measure of the ability of an anticonvulsant drug to abolish the hind limb tonic extensor component of the maximal seizure pattern induced by electric stimulation. The test compound was suspended in 1% of tylose and administered orally in a volume of 0.1 ml per 10 gm of mouse, and each dosage was administered to a group of 10 animals. Control groups received the suspension agent orally. 30, 150 and 300 minutes after administration all animals were shocked. ED50 values were determined by the graphic statistical method of LITCHFIELD and WILCOXON [J. Pharmacol. exp. Therap. 96, 99 (1949)] as a measure of the ability of the test compounds to abolish the hindlimb tonic extensor compound of the maximal seizure pattern in 50 percent of the animals.
A general note: The maximal electroshock test induces tonic seizures with an electrical stimulus.

[4] abbreviates: 0.5 h, shocked 30 minutes after administration, read-out: ED50, 30 minutes.
[5] abbreviates: 2.5 h, shocked 150 minutes after administration, read-out: ED50, 150 minutes.
[6] abbreviates: 5 h, shocked 300 minutes after administration, read-out: ED50, 300 minutes.

Like-named read-outs stand apart in the source and are kept apart here.

One may read the LD50 as the dose expected to kill half of the subjects tested. The term ED50 denotes the midpoint of the dose-response relation. For `C[S+]([O-])CCN1C(=O)c2ccccc2C(C)(C)C1=O` (stereo not drawn) [B, 4,4-Dimethyl-2-(2-methylsulfinyl-ethyl)-2H,4H-isoqionoline-1,3-dione], the animals died in data set [1] is recorded as 4 of 10. In addition, the LD50 at 96 h in data set [2] was roughly 500 mg/kg. Moreover, the values for the ED50 in data set [3] (setting [4]), in data set [3] (setting [5]) and in data set [3] (setting [6]) were 14.5 mg/kg, 16.8 mg/kg and 25 mg/kg, respectively.
The corresponding values for `CC1(C)C(=O)N(CCS(C)(=O)=O)C(=O)c2ccccc21` [C, 4,4-Dimethyl-2-(2-methylsulfonyl-ethyl)-2H,4H-isoquinoline-1,3-dione] are 1 of 10, greater than 500 mg/kg, 26.3 mg/kg, 35.2 mg/kg and 32.5 mg/kg.
The corresponding values for `CSCCN1C(=O)c2ccccc2C(C)(C)C1=O` [Compound A, 4,4-Dimethyl-2-(2-methylmercapto-ethyl)-2H,4H-isoquinoline-1,3-dione] are 0 of 10, greater than 500 mg/kg, 17.3 mg/kg, 22.8 mg/kg and 27.8 mg/kg.
As to `CSCN1C(=O)c2ccccc2C(C)(C)C1=O` [D, 4,4-Dimethyl-2-(methylmercapto-methyl)-2H,4H-isoquinoline-1,3-dione], the figures for the ED50 in data set [3] (setting [4]), in data set [3] (setting [5]) and in data set [3] (setting [6]) were 28 mg/kg, 16.2 mg/kg and 19.8 mg/kg, respectively.
The like results for `C[S+]([O-])CN1C(=O)c2ccccc2C(C)(C)C1=O` (stereo not drawn) [E, 4,4-Dimethyl-2-(methylsulfinyl-methyl)-2H,4H-isoquinoline-1,3-dione] were, in that order, 8.3 mg/kg, 10.5 mg/kg and 11.5 mg/kg.
